According to ChEMBL document CHEMBL4507301 (2021):

What was measured:
[1] = tested on: Phosphatidylinositol 4,5-bisphosphate 3-kinase catalytic subunit alpha isoform (Homo sapiens), P42336 [C420R]; conditions: Compound concentration 1000.0 nM
[2] = target: Mu-type opioid receptor (Homo sapiens) (UniProt P35372); conditions: Compound concentration 10.0 uM
[3] = target: 5-hydroxytryptamine receptor 1B (Homo sapiens) (UniProt P28222); conditions: Compound concentration 10.0 uM
[4] = tested on: Fibroblast growth factor receptor 3 (Homo sapiens), P22607 [G697C]; conditions: Compound concentration 1000.0 nM
[5] = target: Phosphatidylinositol 4-phosphate 5-kinase type-1 alpha (Homo sapiens) (UniProt Q99755); conditions: Compound concentration 1000.0 nM
[6] = target: Serine/threonine-protein kinase RIO3 (Homo sapiens) (UniProt O14730); conditions: Compound concentration 1000.0 nM
[7] = target: Fibroblast growth factor receptor 3 (Homo sapiens) (UniProt P22607); conditions: Compound concentration 1000.0 nM
[8] = target: Non-receptor tyrosine-protein kinase TYK2 (Homo sapiens) (UniProt P29597); conditions: Compound concentration 1000.0 nM
[9] = target: Testis-specific serine/threonine-protein kinase 1 (Homo sapiens) (UniProt Q9BXA7); conditions: Compound concentration 1000.0 nM
[10] = target: Cyclin-dependent kinase 4 (Homo sapiens) (UniProt P11802); conditions: Compound concentration 1000.0 nM
[11] = target: Serine/threonine-protein kinase/endoribonuclease IRE1 (Homo sapiens) (UniProt O75460); conditions: Compound concentration 1000.0 nM
[12] = target: Mitogen-activated protein kinase 12 (Homo sapiens) (UniProt P53778); conditions: Compound concentration 1000.0 nM
[13] = target: Phosphatidylinositol 4-kinase beta (Homo sapiens) (UniProt Q9UBF8); conditions: Compound concentration 1000.0 nM
[14] = target: Bone morphogenetic protein receptor type-1A (Homo sapiens) (UniProt P36894); conditions: Compound concentration 1000.0 nM
[15] = target: Mitogen-activated protein kinase kinase kinase 13 (Homo sapiens) (UniProt O43283); conditions: Compound concentration 1000.0 nM
[16] = target: Cyclin-dependent kinase 2 homolog (Plasmodium falciparum (isolate 3D7)) (UniProt P61075); conditions: Compound concentration 1000.0 nM
[17] = target: Dual specificity tyrosine-phosphorylation-regulated kinase 1A (Homo sapiens) (UniProt Q13627); conditions: Compound concentration 1000.0 nM
[18] = target: Epithelial discoidin domain-containing receptor 1 (Homo sapiens) (UniProt Q08345); conditions: Compound concentration 1000.0 nM
[19] = target: Cyclin-dependent kinase 4 (Homo sapiens) (UniProt P11802); conditions: Compound concentration 1000.0 nM; remark: listed apart in the source
[20] = target: SRSF protein kinase 3 (Homo sapiens) (UniProt Q9UPE1); conditions: Compound concentration 1000.0 nM
[21] = target: Activin receptor type-1 (Homo sapiens) (UniProt Q04771); conditions: Compound concentration 1000.0 nM
[22] = target: Cyclin-dependent kinase 14 (Homo sapiens) (UniProt O94921); conditions: Compound concentration 1000.0 nM
[23] = target: Mitogen-activated protein kinase 3 (Homo sapiens) (UniProt P27361); conditions: Compound concentration 1000.0 nM
[24] = target: Dual specificity tyrosine-phosphorylation-regulated kinase 1B (Homo sapiens) (UniProt Q9Y463); conditions: Compound concentration 1000.0 nM
[25] = target: Serine/threonine-protein kinase 25 (Homo sapiens) (UniProt O00506); conditions: Compound concentration 1000.0 nM
[26] = target: Vascular endothelial growth factor receptor 2 (Homo sapiens) (UniProt P35968); conditions: Compound concentration 1000.0 nM
[27] = target: Serine/threonine-protein kinase SIK1 (Homo sapiens) (UniProt P57059); conditions: Compound concentration 1000.0 nM
[28] = target: 1-phosphatidylinositol 3-phosphate 5-kinase (Homo sapiens) (UniProt Q9Y2I7); conditions: Compound concentration 1000.0 nM
[29] = target: 5-hydroxytryptamine receptor 7 (Homo sapiens) (UniProt P34969); conditions: Compound concentration 10.0 uM
[30] = target: Serine/threonine-protein kinase Chk1 (Homo sapiens) (UniProt O14757); conditions: Compound concentration 1000.0 nM
[31] = target: Serine/threonine-protein kinase TAO2 (Homo sapiens) (UniProt Q9UL54); conditions: Compound concentration 1000.0 nM
[32] = target: Phosphatidylinositol 4,5-bisphosphate 3-kinase catalytic subunit alpha isoform (Homo sapiens) (UniProt P42336); conditions: Compound concentration 1000.0 nM
[33] = target: Serine/threonine-protein kinase Nek4 (Homo sapiens) (UniProt P51957); conditions: Compound concentration 1000.0 nM
[34] = target: Phosphatidylinositol 4,5-bisphosphate 3-kinase catalytic subunit delta isoform (Homo sapiens) (UniProt O00329); conditions: Compound concentration 1000.0 nM
[35] = tested on: Epidermal growth factor receptor (Homo sapiens), P00533 [UNDEFINED MUTATION]; conditions: Compound concentration 1000.0 nM
[36] = target: Glycogen synthase kinase-3 beta (Homo sapiens) (UniProt P49841); conditions: Compound concentration 1000.0 nM
[37] = target: Ribosomal protein S6 kinase alpha-5 (Homo sapiens) (UniProt O75582); conditions: Compound concentration 1000.0 nM
[38] = target: Serine/threonine-protein kinase 32B (Homo sapiens) (UniProt Q9NY57); conditions: Compound concentration 1000.0 nM
[39] = target: Serine/threonine-protein kinase Sgk2 (Homo sapiens) (UniProt Q9HBY8); conditions: Compound concentration 1000.0 nM
[40] = target: Serine/threonine-protein kinase 10 (Homo sapiens) (UniProt O94804); conditions: Compound concentration 1000.0 nM
[41] = target: Ephrin type-B receptor 2 (Homo sapiens) (UniProt P29323); conditions: Compound concentration 1000.0 nM
[42] = target: Cyclin-dependent kinase 19 (Homo sapiens) (UniProt Q9BWU1); conditions: Compound concentration 1000.0 nM
[43] = target: Fibroblast growth factor receptor 4 (Homo sapiens) (UniProt P22455); conditions: Compound concentration 1000.0 nM
[44] = target: Cyclin-dependent kinase 8 (Homo sapiens) (UniProt P49336); conditions: Compound concentration 1000.0 nM
[45] = target: Misshapen-like kinase 1 (Homo sapiens) (UniProt Q8N4C8); conditions: Compound concentration 1000.0 nM

Sequence of Cyclin-dependent kinase 4 (Homo sapiens) (P11802 whole entry): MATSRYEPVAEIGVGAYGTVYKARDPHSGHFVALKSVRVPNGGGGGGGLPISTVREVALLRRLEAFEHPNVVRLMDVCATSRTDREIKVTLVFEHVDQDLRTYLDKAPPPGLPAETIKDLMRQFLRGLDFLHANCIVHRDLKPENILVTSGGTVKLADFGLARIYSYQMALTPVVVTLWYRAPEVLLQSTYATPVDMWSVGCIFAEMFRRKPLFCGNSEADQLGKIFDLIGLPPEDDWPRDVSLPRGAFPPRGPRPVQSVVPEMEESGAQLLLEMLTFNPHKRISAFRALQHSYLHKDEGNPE
Sequence of Mu-type opioid receptor (Homo sapiens) (P35372 whole entry): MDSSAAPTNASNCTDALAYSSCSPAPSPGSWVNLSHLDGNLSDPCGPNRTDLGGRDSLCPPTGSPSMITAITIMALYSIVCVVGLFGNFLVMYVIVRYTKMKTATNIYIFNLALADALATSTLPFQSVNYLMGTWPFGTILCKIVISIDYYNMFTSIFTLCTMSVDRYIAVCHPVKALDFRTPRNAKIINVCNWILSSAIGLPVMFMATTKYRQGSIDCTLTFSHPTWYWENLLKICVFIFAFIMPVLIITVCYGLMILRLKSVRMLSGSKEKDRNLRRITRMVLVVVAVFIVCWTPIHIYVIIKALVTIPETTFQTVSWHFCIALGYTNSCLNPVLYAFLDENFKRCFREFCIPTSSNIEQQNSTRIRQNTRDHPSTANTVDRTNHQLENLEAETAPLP
Sequence of Testis-specific serine/threonine-protein kinase 1 (Homo sapiens) (Q9BXA7 whole entry): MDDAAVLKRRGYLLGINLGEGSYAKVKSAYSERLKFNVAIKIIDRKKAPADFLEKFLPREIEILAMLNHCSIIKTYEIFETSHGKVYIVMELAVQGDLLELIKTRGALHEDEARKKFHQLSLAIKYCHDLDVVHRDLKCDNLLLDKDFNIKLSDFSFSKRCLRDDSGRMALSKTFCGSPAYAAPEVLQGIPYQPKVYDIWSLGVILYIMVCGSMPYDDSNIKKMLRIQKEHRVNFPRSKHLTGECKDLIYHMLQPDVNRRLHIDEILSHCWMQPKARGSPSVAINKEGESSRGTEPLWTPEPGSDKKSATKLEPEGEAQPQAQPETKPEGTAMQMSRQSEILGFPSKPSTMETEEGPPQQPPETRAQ
Sequence of Serine/threonine-protein kinase SIK1 (Homo sapiens) (P57059 whole entry): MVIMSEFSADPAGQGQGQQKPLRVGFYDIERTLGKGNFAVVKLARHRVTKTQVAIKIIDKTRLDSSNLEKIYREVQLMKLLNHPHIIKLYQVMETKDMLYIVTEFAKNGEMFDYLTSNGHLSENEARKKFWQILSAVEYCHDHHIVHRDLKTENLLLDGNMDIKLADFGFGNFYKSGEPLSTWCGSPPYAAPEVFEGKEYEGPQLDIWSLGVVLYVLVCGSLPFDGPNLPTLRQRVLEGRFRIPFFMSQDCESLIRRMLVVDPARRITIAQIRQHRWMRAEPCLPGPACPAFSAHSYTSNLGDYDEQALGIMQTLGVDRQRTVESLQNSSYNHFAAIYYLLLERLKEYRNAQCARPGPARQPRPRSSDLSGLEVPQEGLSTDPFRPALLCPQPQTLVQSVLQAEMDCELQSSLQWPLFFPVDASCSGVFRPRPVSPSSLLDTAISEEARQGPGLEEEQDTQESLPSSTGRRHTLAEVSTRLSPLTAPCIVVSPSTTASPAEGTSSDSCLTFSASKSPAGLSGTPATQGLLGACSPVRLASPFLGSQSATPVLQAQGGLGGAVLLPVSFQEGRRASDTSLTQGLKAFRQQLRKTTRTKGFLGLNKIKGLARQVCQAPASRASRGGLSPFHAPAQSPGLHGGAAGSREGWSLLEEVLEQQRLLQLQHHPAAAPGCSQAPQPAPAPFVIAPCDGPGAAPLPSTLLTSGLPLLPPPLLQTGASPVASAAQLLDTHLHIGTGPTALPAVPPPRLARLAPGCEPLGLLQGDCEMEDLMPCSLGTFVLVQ
Sequence of Serine/threonine-protein kinase Nek4 (Homo sapiens) (P51957 whole entry, looked up, canonical isoform): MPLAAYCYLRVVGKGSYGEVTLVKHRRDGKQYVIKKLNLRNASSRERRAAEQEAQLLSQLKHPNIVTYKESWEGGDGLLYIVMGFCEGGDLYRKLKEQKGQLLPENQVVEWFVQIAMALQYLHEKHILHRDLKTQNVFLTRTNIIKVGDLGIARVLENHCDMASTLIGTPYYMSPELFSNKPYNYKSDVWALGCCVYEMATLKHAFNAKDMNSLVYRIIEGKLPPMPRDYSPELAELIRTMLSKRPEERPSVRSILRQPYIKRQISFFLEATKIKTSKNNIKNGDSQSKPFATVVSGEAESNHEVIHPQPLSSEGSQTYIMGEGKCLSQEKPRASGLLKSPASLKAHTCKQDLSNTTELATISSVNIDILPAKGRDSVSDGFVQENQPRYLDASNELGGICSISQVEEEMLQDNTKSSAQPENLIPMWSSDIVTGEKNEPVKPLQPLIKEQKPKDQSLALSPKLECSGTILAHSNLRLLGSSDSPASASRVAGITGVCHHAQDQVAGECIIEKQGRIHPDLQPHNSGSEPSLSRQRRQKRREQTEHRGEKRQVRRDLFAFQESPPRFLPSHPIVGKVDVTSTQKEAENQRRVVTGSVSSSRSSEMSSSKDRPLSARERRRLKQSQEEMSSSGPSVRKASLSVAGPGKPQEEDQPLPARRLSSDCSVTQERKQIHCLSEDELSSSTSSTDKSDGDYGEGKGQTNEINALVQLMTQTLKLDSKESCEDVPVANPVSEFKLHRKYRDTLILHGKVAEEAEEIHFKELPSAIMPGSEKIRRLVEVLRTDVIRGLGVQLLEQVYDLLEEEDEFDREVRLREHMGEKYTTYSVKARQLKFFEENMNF
Sequence of Mitogen-activated protein kinase kinase kinase 13 (Homo sapiens) (O43283 whole entry): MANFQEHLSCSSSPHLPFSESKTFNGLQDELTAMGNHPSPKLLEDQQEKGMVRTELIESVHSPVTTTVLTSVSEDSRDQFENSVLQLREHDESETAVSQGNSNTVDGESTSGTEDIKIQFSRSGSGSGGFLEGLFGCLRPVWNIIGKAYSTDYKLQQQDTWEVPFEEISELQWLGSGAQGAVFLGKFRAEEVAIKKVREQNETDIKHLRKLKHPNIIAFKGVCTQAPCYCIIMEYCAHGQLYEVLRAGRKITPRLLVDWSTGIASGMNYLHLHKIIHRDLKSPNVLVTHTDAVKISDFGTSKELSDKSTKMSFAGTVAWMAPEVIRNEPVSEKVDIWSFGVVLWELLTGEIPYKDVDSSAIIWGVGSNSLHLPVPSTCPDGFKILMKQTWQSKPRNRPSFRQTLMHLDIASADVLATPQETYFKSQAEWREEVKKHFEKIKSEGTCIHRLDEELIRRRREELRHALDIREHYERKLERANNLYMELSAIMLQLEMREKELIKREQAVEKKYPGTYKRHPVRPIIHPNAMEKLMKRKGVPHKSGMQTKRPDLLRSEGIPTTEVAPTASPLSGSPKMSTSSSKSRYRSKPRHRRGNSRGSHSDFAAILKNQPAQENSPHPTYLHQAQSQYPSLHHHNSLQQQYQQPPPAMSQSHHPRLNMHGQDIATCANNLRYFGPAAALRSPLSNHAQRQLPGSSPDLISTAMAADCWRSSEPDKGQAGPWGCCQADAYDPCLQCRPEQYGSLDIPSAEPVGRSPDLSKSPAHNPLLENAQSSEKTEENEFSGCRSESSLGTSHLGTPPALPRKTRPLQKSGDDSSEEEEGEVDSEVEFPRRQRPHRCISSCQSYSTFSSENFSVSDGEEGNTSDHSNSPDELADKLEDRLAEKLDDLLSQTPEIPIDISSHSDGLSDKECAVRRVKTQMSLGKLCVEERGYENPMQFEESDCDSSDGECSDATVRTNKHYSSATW
Sequence of Fibroblast growth factor receptor 3 (Homo sapiens), P22607 [G697C] (P22607 whole entry G697C): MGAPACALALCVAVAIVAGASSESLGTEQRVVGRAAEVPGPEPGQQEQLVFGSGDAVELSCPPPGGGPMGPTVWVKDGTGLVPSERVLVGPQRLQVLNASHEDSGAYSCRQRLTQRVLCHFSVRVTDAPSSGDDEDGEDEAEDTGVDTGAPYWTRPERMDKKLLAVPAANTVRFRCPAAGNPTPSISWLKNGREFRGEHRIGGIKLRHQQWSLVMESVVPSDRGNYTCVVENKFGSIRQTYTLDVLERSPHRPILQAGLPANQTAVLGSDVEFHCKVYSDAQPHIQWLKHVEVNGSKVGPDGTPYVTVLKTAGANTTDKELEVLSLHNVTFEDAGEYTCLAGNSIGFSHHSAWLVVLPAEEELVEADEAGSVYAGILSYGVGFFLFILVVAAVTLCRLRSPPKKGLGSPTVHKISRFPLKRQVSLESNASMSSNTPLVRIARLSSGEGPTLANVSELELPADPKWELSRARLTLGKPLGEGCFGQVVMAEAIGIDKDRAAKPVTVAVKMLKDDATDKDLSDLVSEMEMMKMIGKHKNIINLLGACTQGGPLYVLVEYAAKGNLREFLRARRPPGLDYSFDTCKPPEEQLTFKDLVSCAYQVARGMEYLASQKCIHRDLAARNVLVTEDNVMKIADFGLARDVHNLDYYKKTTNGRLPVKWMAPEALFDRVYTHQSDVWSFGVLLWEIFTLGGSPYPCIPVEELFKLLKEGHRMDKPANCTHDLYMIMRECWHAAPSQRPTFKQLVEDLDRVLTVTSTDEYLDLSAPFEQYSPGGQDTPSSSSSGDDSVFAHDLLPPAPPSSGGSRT
Sequence of 5-hydroxytryptamine receptor 1B (Homo sapiens) (P28222 whole entry): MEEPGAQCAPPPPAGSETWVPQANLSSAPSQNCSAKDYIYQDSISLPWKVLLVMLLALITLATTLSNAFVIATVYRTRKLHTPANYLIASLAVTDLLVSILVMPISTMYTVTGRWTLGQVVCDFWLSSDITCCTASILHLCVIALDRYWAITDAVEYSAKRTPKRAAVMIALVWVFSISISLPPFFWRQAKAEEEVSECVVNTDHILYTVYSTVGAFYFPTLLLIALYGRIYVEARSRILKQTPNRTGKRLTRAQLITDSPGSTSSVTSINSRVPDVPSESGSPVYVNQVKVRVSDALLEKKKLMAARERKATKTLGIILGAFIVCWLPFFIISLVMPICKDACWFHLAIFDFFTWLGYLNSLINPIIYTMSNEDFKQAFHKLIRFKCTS

SMILES: C[C@@H](c1cccc(C#N)c1)n1cc(Cl)cc(C(N)=O)c1=N [(S)-9s]
- residual activity [1]: 100%
- inhibition [2]: -6.83%
- inhibition [3]: -2.19%
- residual activity [4]: 79%
- residual activity [5]: 100%
- residual activity [6]: 87%
- residual activity [7]: 100%
- residual activity [8]: 94%
- residual activity [9]: 100%
- residual activity [10]: 91%
- residual activity [11]: 76%
- residual activity [12]: 73%
- residual activity [13]: 85%
- residual activity [14]: 100%
- residual activity [15]: 100%
- residual activity [16]: 100%
- residual activity [17]: 75%
- residual activity [18]: 88%
- residual activity [19]: 99%
- residual activity [20]: 100%
- residual activity [21]: 96%
- residual activity [22]: 100%
- residual activity [23]: 100%
- residual activity [24]: 37%
- residual activity [25]: 100%
- residual activity [26]: 73%
- residual activity [27]: 96%
- residual activity [28]: 100%
- inhibition [29]: 4.17%
- residual activity [30]: 100%
- residual activity [31]: 84%
- residual activity [32]: 100%
- residual activity [33]: 96%
- residual activity [34]: 100%
- residual activity [35]: 90%
- residual activity [36]: 88%
- residual activity [37]: 74%
- residual activity [38]: 100%
- residual activity [39]: 91%
- residual activity [40]: 86%
- residual activity [41]: 80%
- residual activity [42]: 100%
- residual activity [43]: 100%
- residual activity [44]: 92%
- residual activity [45]: 96%

SMILES: C[C@H](c1cccc(C#N)c1)n1cc(Cl)cc(C(N)=O)c1=N [(R)-9s]
- residual activity [1]: 100%
- inhibition [2]: -5.45%
- inhibition [3]: 9.16%
- residual activity [4]: 100%
- residual activity [5]: 100%
- residual activity [6]: 100%
- residual activity [7]: 88%
- residual activity [8]: 75%
- residual activity [9]: 96%
- residual activity [10]: 96%
- residual activity [11]: 69%
- residual activity [12]: 100%
- residual activity [13]: 100%
- residual activity [14]: 100%
- residual activity [15]: 97%
- residual activity [16]: 100%
- residual activity [17]: 65%
- residual activity [18]: 98%
- residual activity [19]: 88%
- residual activity [20]: 100%
- residual activity [21]: 88%
- residual activity [22]: 100%
- residual activity [23]: 97%
- residual activity [24]: 63%
- residual activity [25]: 100%
- residual activity [26]: 88%
- residual activity [27]: 100%
- residual activity [28]: 91%
- inhibition [29]: -7.43%
- residual activity [30]: 100%
- residual activity [31]: 82%
- residual activity [32]: 92%
- residual activity [33]: 100%
- residual activity [34]: 99%
- residual activity [35]: 97%
- residual activity [36]: 95%
- residual activity [37]: 68%
- residual activity [38]: 100%
- residual activity [39]: 100%
- residual activity [40]: 100%
- residual activity [41]: 66%
- residual activity [42]: 89%
- residual activity [43]: 87%
- residual activity [44]: 100%
- residual activity [45]: 88%
